pIC50: −log10 of the molar value. Marks after values point to notes of the source that are not given here.
Legend:
Ret wt = molecular target: T1, Ret wt (Homo sapiens, UniProt P07949); test: Inhibition of kinase, Ret wt (HTRF KinEASE-TK); type: biochemical
T1 construct: purchased Carna 08-159-10 ug
Protocol: (§1) Ret wt (Carna, Cat. No. 08-159-10 ug), RET (V804M), Active (Signalchem. Cat. No. R02—12GG), HTRF KinEASE-TK kit (Cisbio, Cat. No.62TK0PEC), CEP-32496 (MCE, Cat. No. HY-15200), ATP (Sigma. Cat. No. A7699), DMSO (Sigma, Cat. No. D8418-1L), DTT (Sigma, Cat. No. D0632), MgCl2(Sigma, Cat. No. M1028), 384-well plate (Labcyte, Cat. No. P-05525-BC).
(§2) Formulation of compound: The test compounds were dissolved in DMSO to obtain 10 mM stock solutions, which were then serially diluted 3-fold in DMSO to obtain 10 concentrations. At the time of addition, the compound was further diluted 10-fold with buffer.
(§3) In 5×kinase buffer A, Ret wt or RET V804M kinase was mixed with different concentrations of compounds prepared by pre-dilution for 10 minutes. Each concentration was tested in duplicate. The corresponding substrate and ATP were added, and reaction was performed at room temperature for 20 minutes (negative and positive controls were provided: the negative control was a blank control, and the positive control was CEP-32496 (Agerafenib)). After completion of the reaction, detection reagents (reagents in the HTRF KinEASE-TK kit) were added. After incubating for 30 minutes at room temperature, enzyme activity in the presence of various concentrations of the compounds of the present disclosure was determined by Envision microplate reader, and inhibitory activity of different concentrations of the compounds on enzyme activity was calculated. The inhibitory activity of different concentrations of the compounds on enzyme activity was fitted by Graphpad 5.0 software, and the IC50 value was calculated.

RET V804M = molecular target: T2, RET V804M (Homo sapiens, UniProt P07949, V804M); test: Inhibition of kinase, RET V804M (HTRF KinEASE-TK); type: biochemical
T2 construct: purchased Signalchem R02—12GG
T2 sequence (P07949 29-1114 V804M): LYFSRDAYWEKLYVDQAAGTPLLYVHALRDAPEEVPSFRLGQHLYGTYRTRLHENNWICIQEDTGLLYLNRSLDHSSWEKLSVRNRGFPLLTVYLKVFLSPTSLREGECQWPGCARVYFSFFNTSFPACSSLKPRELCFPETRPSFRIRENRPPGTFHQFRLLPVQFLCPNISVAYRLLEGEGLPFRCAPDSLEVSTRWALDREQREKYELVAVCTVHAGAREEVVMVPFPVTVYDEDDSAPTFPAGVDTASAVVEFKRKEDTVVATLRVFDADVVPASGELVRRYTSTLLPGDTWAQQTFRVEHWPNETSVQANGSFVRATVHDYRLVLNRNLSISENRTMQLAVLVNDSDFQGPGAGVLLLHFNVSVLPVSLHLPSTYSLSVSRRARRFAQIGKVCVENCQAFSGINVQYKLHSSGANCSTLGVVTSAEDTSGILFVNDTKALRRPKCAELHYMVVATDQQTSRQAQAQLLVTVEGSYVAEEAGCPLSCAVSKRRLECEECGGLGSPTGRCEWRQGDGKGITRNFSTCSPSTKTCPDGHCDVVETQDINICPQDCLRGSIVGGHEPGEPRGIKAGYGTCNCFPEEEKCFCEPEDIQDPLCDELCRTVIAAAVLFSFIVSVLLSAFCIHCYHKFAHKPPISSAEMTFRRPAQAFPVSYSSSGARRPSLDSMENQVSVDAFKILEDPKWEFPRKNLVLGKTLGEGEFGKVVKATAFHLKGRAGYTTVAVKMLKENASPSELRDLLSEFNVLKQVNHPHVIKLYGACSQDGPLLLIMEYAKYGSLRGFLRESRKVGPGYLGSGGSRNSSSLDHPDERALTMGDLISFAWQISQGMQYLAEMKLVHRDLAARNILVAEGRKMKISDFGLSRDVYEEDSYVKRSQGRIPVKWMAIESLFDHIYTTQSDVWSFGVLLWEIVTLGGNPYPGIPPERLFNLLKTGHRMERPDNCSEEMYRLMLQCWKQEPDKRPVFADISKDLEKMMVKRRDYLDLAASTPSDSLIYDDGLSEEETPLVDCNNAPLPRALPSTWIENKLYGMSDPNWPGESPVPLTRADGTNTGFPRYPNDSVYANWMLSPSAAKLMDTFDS
Protocol: as §1, §2, §3

[1] = system: Ba/F3 KIF5B-RET cell line tumor model; test: Anti-tumor effect assay in Ba/F3 KIF5B-RET cell line tumor model (allograft); type: in vivo, female NPSG mice; conditions: for Tumor volume (x ± S), Day 0 of administration: 10 mg/kg p.o. QD × 14, day 0 (baseline); for TGI (%), Day 14 of administration / Tumor volume (x ± S), Day 14 of administration: 10 mg/kg p.o. QD × 14, day 14
Text: (§4) The efficacy of compounds of the present disclosure in female NPSG mouse allograft models of two B-cell lymphoma cell lines Ba/F3 KIF5B-RET and Ba/F3 KIF5B-RET^G810R was verified.
(§5) Assay animals: Female NPSG mice, 6-8 weeks old (age of mice at the time of tumor cell inoculation), weighing 18-20 g, 60 mice, purchased from Shanghai Jihui Laboratory Animal Care Co., Ltd.
(§6) Assay methods: 1) Ba/F3 KIF5B-RET and Ba/F3 KIF5B-RET^G810R cells were respectively resuscitated and Cultured in vitro, and 3×10^7 cells of each type were obtained. 2) 60 female NPSG mice aged 6-8 weeks were adaptively bred for 1 week and then weighed. 4) After inoculation, tumor volume and body weight were measured once a week. When average tumor volume reached about […], mice inoculated with each type of Ba/F3 cells were randomly divided into 7 groups according to tumor volume and body weight, with 3 mice in each group. The administration was started immediately after grouping. The date of start of administration was regarded as day 0. Informations on administration and grouping were shown in Tables 5 and 6.5) After the start of the administration, the body weight and tumor volume of mice were measured twice a week. 6) After the end of the administration, the assay was over.
(§7) Assay observation and data collection: After tumor inoculation, morbidity and death of animals were observed every working day. Daily observation included tumor growth and effects of drugs on laboratory animals, such as changes in activity, changes in feeding and drinking, weight loss, changes in appearance of hair and eye, death and other clinical symptoms. Formula for calculating tumor volume is: tumor volume (mm^3)=½×(a×b^2) (wherein a represents the long diameter and b represents the short diameter)
(§8) Relative tumor inhibition rate TGI (%): TGI %=(1−T/C)×100%. T/C % is relative tumor proliferation rate, that is, a percentage value of relative tumor volume between treatment group and control group at a certain point in time. T and C are relative tumor volume (RTV, that is, the […] tumor volume at this time point and tumor volume at day 0) of treatment group and control group at a certain point in time, respectively.
(§9) Statistical analysis: For pairwise comparison, a T-Test analysis method was used, and for comparison of three or more groups, a One-Way ANOVA method was used. For comparison of potential synergistic effects, a Two-way ANOVA was used. SPSS 24.0 was used for all data. A p value less than 0.05 was considered a significant difference.

[2] = system: Ba/F3 KIF5B-RET^G810R cell line tumor model; test: Anti-tumor effect assay in Ba/F3 KIF5B-RET^G810R cell line tumor model (allograft); type: in vivo, female NPSG mice; conditions: for Tumor volume (x ± S), Day 0 of administration / Tumor volume (x ± S), Day 13 of administration / TGI (%), Day 13 of administration: Ba/F3 KIF5B-RET^G810R model; for Tumor volume (x ± S), Day 0 of administration: 25 mg/kg p.o. QD × 13, day 0 (baseline); for Tumor volume (x ± S), Day 13 of administration / TGI (%), Day 13 of administration: 25 mg/kg p.o. QD × 13, day 13; for TGI (%), Day 13 of administration: TGI more than 100% = decrease in tumor volume; for relative tumor inhibition rate TGI (%): day 13 of administration, AD80 group 25 mg/kg
Text: as §4, §5, §6, §7, §8, §9

[3] = Safety assay (body weight, tolerability) in Ba/F3 KIF5B-RET cell line tumor model; type: in vivo; conditions: for Number of animals at the beginning/end of assay: 10 mg/kg p.o. QD × 14; for Average weight g (x ± S), Day 0 of administration: 10 mg/kg p.o. QD × 14, day 0 (baseline); for Average weight g (x ± S), Day 14 of administration / Weight change rate (%), Day 14 of administration: 10 mg/kg p.o. QD × 14, day 14; for tolerability (weight loss, drug withdrawal, drug toxicity): during the treatment
Protocol: as §6, §7

[4] = Safety assay (body weight, tolerability) in Ba/F3 KIF5B-RET^G810R cell line tumor model; type: in vivo; conditions: for Number of animals at the beginning/end of assay: 25 mg/kg p.o. QD × 13; for Average weight g (x ± S), Day 0 of administration: 25 mg/kg p.o. QD × 13, day 0 (baseline); for Average weight g (x ± S), Day 13 of administration / Weight change rate (%), Day 13 of administration: 25 mg/kg p.o. QD × 13, day 13; for tolerability (weight loss, drug withdrawal, drug toxicity): during the treatment
Protocol: as §6, §7

T1 sequence (P07949 29-1114): as the sequence (P07949 29-1114 V804M) above, with M776V counted along it

| pIC50 (Ret wt) | pIC50 (RET V804M) | SMILES | Tumor volume (x ± S), Day 0 of administration [1] [mm^3] | TGI (%), Day 14 of administration [1] [%] | Tumor volume (x ± S), Day 14 of administration [1] [mm^3] | Tumor volume (x ± S), Day 0 of administration [2] [mm^3] | Tumor volume (x ± S), Day 13 of administration [2] [mm^3] | TGI (%), Day 13 of administration [2] | relative tumor inhibition rate TGI (%) [2] [%] | Number of animals at the beginning/end of assay [3] | Average weight g (x ± S), Day 0 of administration [3] [g] | Average weight g (x ± S), Day 14 of administration [3] [g] | Weight change rate (%), Day 14 of administration [3] [%] | tolerability (weight loss, drug withdrawal, drug toxicity) [3] | Number of animals at the beginning/end of assay [4] | Average weight g (x ± S), Day 0 of administration [4] [g] | Average weight g (x ± S), Day 13 of administration [4] [g] | Weight change rate (%), Day 13 of administration [4] [%] | tolerability (weight loss, drug withdrawal, drug toxicity) [4] |
| --- | --- | --- | --- | --- | --- | --- | --- | --- | --- | --- | --- | --- | --- | --- | --- | --- | --- | --- | --- |
| 8.00 to 9.00 | 8.00 to 9.00 | CC(C)n1nc(-c2ccc(CC(=O)Nc3cc(C(C)(C)C(F)(F)F)on3)cn2)c2c(N)ncnc21 [Compound T-7, 2-(6-(4-amino-1-isopropyl-1H-pyrazolo[3,4-d]pyrimidin-3-yl)pyridin-3-yl)-N-(5-(1,1,1-trifluoro-2-methylprop-2-yl)isoxazol-3-yl)acetamide] |  |  |  |  |  |  |  |  |  |  |  |  |  |  |  |  |  |
|  |  | CC(C)n1nc(-c2ccc(NC(=O)Nc3cc(C(F)(F)F)ccc3F)cc2)c2c(N)ncnc21 [AD80, reference compound] | 100.3 ± 4.33 | 46.4 | 821.7 ± 54.5 | 94.7 ± 5.24 | 185.7 ± 33.65 | 75.2% | 75.2 | 3/3 | 20.1 ± 0.81 | 22.6 ± 0.87 | 12.7 | well tolerated | 3/3 | 19.9 ± 0.44 | 20.7 ± 1.53 | 4.14 | well tolerated |
| ≥ 9.30 | 8.00 to 9.00 | CC(C)c1nc(-c2ccc(CC(=O)Nc3cc(C(C)(C)C(F)(F)F)on3)cc2)c2c(N)nccn12 [Compound T-4, 2-(4-(8-amino-3-isopropylimidazo[1,5-a]pyrazin-1-yl)phenyl)-N-(5-(1,1,1-trifluoro-2-methylprop-2-yl)isoxazol-3-yl)acetamide] |  |  |  |  |  |  |  |  |  |  |  |  |  |  |  |  |  |
| 7.30 to 8.00 | 8.00 to 9.00 | [2H]C([2H])([2H])C(n1cc(-c2ccc(CC(=O)Nc3cc(C(C)(C)C(F)(F)F)on3)cc2)c2c(N)ncnc21)C([2H])([2H])[2H] [Compound T-12, 2-(4-(4-amino-7-(propen-2-yl-1,1,1,3,3,d6)-7H-pyrrolo[2,3-d]pyrimidin-5-yl)phenyl)-N-(5-(1,1,1-trifluo-2-methylpropan-2-yl)isoxazol-3-yl)acetamide] |  |  |  |  |  |  |  |  |  |  |  |  |  |  |  |  |  |
| 8.00 to 9.00 | 8.00 to 9.00 | [2H]C([2H])([2H])C(n1nc(-c2ccc(CC(=O)Nc3cc(C(C)(C)C(F)(F)F)no3)cc2)c2c(N)ncnc21)C([2H])([2H])[2H] [Compound T-11, 2-(4-(4-amino-1-(propan-2-yl-1,1,1,3,3,3-d6)-1H-pyrazolo[3,4-d]pyrimidin-3-yl)phenyl)-N-(3-(1,1,1-trifluoro-2-methylpropan-2-yl)isoxazol-5-yl)acetamide] |  |  |  |  |  |  |  |  |  |  |  |  |  |  |  |  |  |
|  |  | CC(C)n1nc(-c2ccc(CC(=O)Nc3cc(C(C)(C)C(F)(F)F)no3)cc2)c2c(N)ncnc21 [Compound T-8, 2-(4-(4-amino-1-isopropyl-1H-pyrazolo[3,4-d]pyrimidin-3-yl)phenyl)-N-(3-(1,1,1-trifluoro-2-methylprop-2-yl)isoxazol-5-yl)acetamide] | 101.3 ± 4.33 | 95.4 | 163.7 ± 19.74 | 96.7 ± 6.74 | 90.7 ± 8.41 | 101.6%# | 101.6 | 3/3 | 20.5 ± 1.07 | 21.7 ± 0.82 | 6.0 | well tolerated | 3/3 | 19.6 ± 0.32 | 22.5 ± 0.73 | 14.40 | well tolerated |

| SMILES | pIC50 (Ret wt) | pIC50 (RET V804M) | Tumor volume (x ± S), Day 0 of administration [1] [mm^3] | TGI (%), Day 14 of administration [1] [%] | Tumor volume (x ± S), Day 14 of administration [1] [mm^3] | Tumor volume (x ± S), Day 0 of administration [2] [mm^3] | Tumor volume (x ± S), Day 13 of administration [2] [mm^3] | TGI (%), Day 13 of administration [2] | relative tumor inhibition rate TGI (%) [2] [%] | Number of animals at the beginning/end of assay [3] | Average weight g (x ± S), Day 0 of administration [3] [g] | Average weight g (x ± S), Day 14 of administration [3] [g] | Weight change rate (%), Day 14 of administration [3] [%] | tolerability (weight loss, drug withdrawal, drug toxicity) [3] | Number of animals at the beginning/end of assay [4] | Average weight g (x ± S), Day 0 of administration [4] [g] | Average weight g (x ± S), Day 13 of administration [4] [g] | Weight change rate (%), Day 13 of administration [4] [%] | tolerability (weight loss, drug withdrawal, drug toxicity) [4] |
| --- | --- | --- | --- | --- | --- | --- | --- | --- | --- | --- | --- | --- | --- | --- | --- | --- | --- | --- | --- |
| CC(C)n1nc(-c2ccc(NC(=O)Nc3cc(C(C)(C)C(F)(F)F)on3)cc2)c2c(N)ncnc21 [Compound T-2, 1-(4-(4-amino-1-isopropyl-1H-pyrazolo[3,4-d]pyrimidin-3-yl)phenyl)-3-(5-(1,1,1-trifluoro-2-methylprop-2-yl)isoxazol-3-yl)urea] | ≥ 9.30 | 8.00 to 9.00 | 102 ± 5.51 | 63.9 | 588.7 ± 25.3 | 94.3 ± 3.84 | 150.7 ± 4.33 | 84.6% | 84.6 | 3/3 | 20.1 ± 0.56 | 21.7 ± 0.59 | 8.1 | well tolerated | 3/3 | 19.6 ± 0.47 | 21.7 ± 0.74 | 11.05 | well tolerated |
| CC(C)n1nc(-c2ccc(CC(=O)Nc3cc(C(C)(C)C(F)(F)F)on3)cc2)c2c(N)ncnc21 [Compound T-1, 2-(4-(4-amino-1-isopropyl-1H-pyrazolo[3,4-d]pyrimidin-3-yl)phenyl)-N-(5-(1,1,1-trifluoro-2-methylprop-2-yl)isoxazol-3-yl)acetamide] | ≥ 9.30 | ≥ 9.30 | 102.7 ± 6.06 | 90.3 | 233 ± 65.74 | 98 ± 3.61 | 63.7 ± 16.19 | 109.4%# | 109.4 | 3/3 | 20.9 ± 1.06 | 21.6 ± 1.05 | 3.4 | well tolerated | 3/3 | 20.3 ± 1.32 | 21.3 ± 1.19 | 4.90 | well tolerated |
